Results: PMC7405012, “Detection of Chaetomium globosum, Ch. cochliodes and Ch. rectangulare during the Diversity Tracking of Mycotoxin-Producing Chaetomium-like Isolates Obtained in Buildings in Finland” (Toxins, 2020)
Converted amounts (≈) assume the structure as drawn. Read-outs that look alike come from different tables or passages of the source.

Columns and labels:
[1] = test system: murine neuroblastoma cells (MNA); assay: Inhibition of cell proliferation (ICP) assay, MNA; format: cell-based; settings: MNA, 2 days, 37 °C
Procedure: The plate-grown biomass of the fungal pure cultures (100–300 mg) was extracted with ethanol as described earlier. The toxicity assays, namely BSMI assay after exposure for 30 min (rapid inhibition) and for one day (slow inhibition), SMID assay and ICP assay, were all described previously. The toxicity assays involving the ethanol extracts obtained from pure fungal cultures were performed using porcine cells (sperms and somatic cell lines) as indicators according to methods described before. The calculation of EC50—the half maximal effective concentration for the ethanol-dry substances and pure mycotoxins in the BSMI, SMID and ICP assays—were described previously.
The continuous cell line PK-15 (porcine kidney cells) and a malignant cell line (MNA cell line) provided by EVIRA (Helsinki, Finland) were used in the ICP assay. 5,5′,6,6′-tetrachloro-1,1′,3,3′-tetraethyl-benzimidazolylcarbocyanine iodide (JC-1, 3520-43-2), PI (25535-16-4) and calcein-AM (148504-34-1) were obtained from Invitrogen (Carlsbad, CA, USA). Alamethicin A4665 (T. arundinaceum) (CAS 27061-78-5), a mixture of alamethicin F50 peptaibols (MW 1962, 1976, 1976 and 1990), chaetoglobosin A (CAS 50335-03-0), sterigmatocystin (CAS 10048-13-5) and ochratoxin A (CAS 303-47-9) were obtained from Sigma-Aldrich (St. Louis, MO, USA). Malt extract and tryptic soy agar were obtained from Scharlab (Barcelona, Spain). The other chemicals were of analytical grade and were purchased from local suppliers. The biocides and the wetting agent Genapol-080 were purchased from Sigma-Aldrich Finland. The fungicide Boracol 10Rh was obtained from a local supplier. The selected biocides were Borax (600 µg mL^−1; sodium tetraborate, CAS: 1330-43-4), Boracol 10Rh containing disodium octaborate tetrahydrate (CAS: 12280-03-04) and didecyldimethylammonium chloride [CAS: 7173-51-5]), PHMB (CAS: 27083-27-8), phenoxyethanol (CAS: 122-99-6), chloramine, triclosan (5-Chloro-2-(2,4-dichlorophenoxy)phenol, CAS: 3380-34-5) and the wetting agent Genapol X-080 (CAS: 9043-30-5). Genapol X-080 and the biocides were purchased from Sigma-Aldrich, except for Boracol 10Rh, which was purchased from a local supplier.

[2] = test system: porcine kidney cells (PK-15); assay: cells; format: cell-based; settings: for EC50: Sus scrofa, 48 h, read-out: EC50 ICP PK-15 2 days
boar spermatozoa [3] = assay: cells; format: cell-based; settings: for EC50: Spermatozoa, read-out: EC50 SMIDM Boar Sperm 2 h
boar spermatozoa [4] = assay: cells; format: cell-based; settings: for EC50: Spermatozoa, read-out: EC50 BSMIM Boar Sperm 20 min
resting boar spermatozoa [5] = assay: Plasma membrane integrity of resting spermatozoa (SMIDR), calcein-AM + PI; format: cell-based; settings: resting boar sperm, 24 °C; for CC50: Spermatozoa, 48 h, 2 days, read-out: EC50 Lethal Toxicity SMIDR 2 days
Procedure: (§1) The long-term effects of exposure to chaetoglobosin A and to the chaetoglobosin-containing extracts of the Ch. globosum MTAV35 and MTAV37 strains were measured in resting sperm cells exposed at 24 °C for two days. Three criteria were assessed: (1) the motility inhibition of resting boar spermatozoa (BSMIR); (2) the change in mitochondrial membrane potential (ΔΨ) observed using the potentiometric dye JC-1; and (3) the plasma membrane integrity (SMIDR) observed using the viability stain calcein-AM + propidium iodide (PI). […] By contrast, the EC50 concentrations in the SMIDR assays, which measured the lethal damages in plasma membrane after incubation for two days, were >50 times higher (Figure 5 and Table 3).
(§2) The boar sperm cells exposed for 2 days to commercial chaetoglobosin A and the crude extract of MTAV35 and MTAV37 were double-stained with the viability stains PI + calcein–AM, the SMIDR assay, as described earlier. The staining protocol was as follows: 200 μL of extended boar semen containing 27 × 10^6 sperm cells mL^−1 was mixed with 200 μL PBS containing 3 μg mL^−1 calcein-AM and 10 μg mL^−1 PI. The ΔΨm assay monitored the mitochondrial membrane potential changes (ΔΨm) by staining with the lipophilic potentiometric dye JC-1 as described by Mikkola et al. (2015). For the staining with JC-1 (35 µg mL^−1), 200 µL of the sperm cells were shaken and incubated at 37 °C for 5 min. After staining, the cells exposed in the SMIDR and the ΔΨm assays were inspected with fluorescence microscope using 400× magnification (Nikon Eclipse E600, Nikon Corporation, Tokyo Japan) with filters BP 450–490 nm/LP 520. The calcein–AM-stained cells with intact plasma membranes produced green fluorescence, whereas the PI-dyed cells with damaged plasma membranes produced red fluorescence. In JC-1 stained sperm cells, mitochondria with high membrane potential emitted yellow fluorescence, whereas depolarized mitochondria fluoresced green.
(§3) The EC50 concentration in these microscopic assays was defined as the lowest concentration where the ratio of cells similar to those in the solvent control was less than 50%. This EC50 fitted between EC90 and EC10 observed in the microscope calculating ca. 100–120 sperm cells from three microscopic fields. The maximal difference between four parallel tests in each of the two methods was one dilution step. The assays were calibrated with triclosan.

resting PK-15 cells = assay: Mitochondrial damage test: accelerated glucose consumption and extracellular acidosis; format: cell-based, porcine; settings: for EC50: Sus scrofa; for sublethal concentration that promoted the acceleration of glycolysis: PK-15 cells, positive controls for mitochondrial toxicity
Procedure: The mitochondria were depolarized in sperm cells exposed to sublethal concentrations of chaetoglobosin A (Figure 5) and to the chaetoglobosin-containing extracts (Table 3). This observation aroused the suspicion regarding mitochondrial toxicity. The mitochondrial toxicity of the extracts containing chaetoglobosin was assessed by measuring the accelerated glucose consumption in resting PK-15 cells. […] By contrast, the positive controls for mitochondrial toxicity—enniatin B, moniliformin and valinomycin at sublethal concentrations of 1.5, 4 and 5 ng mL^−1, respectively—promoted the acceleration of glycolysis.
The test for mitochondrial damage as indicated by accelerated glucose consumption and extracellular acidosis was described earlier. The PK-15 cells were grown in 8-well flat-bottom chamber glass slides, seeded to a density of 4 × 10^4 cells mL^−1, in the respective medium for 48 h. The twofold serially diluted test substances or the vehicle only was dispensed into the wells. The glucose content of the wells was measured by using a glucose meter (Precision Xceed; Abbott Diabetes Care Ltd., Berkshire, United Kingdom). In wells that received nothing or the vehicle only, the glucose concentration decreased from an initial concentration (0 h) of 12 to 6 mM (24 h), but the pH remained as pH of 7.2. A glucose concentration after 24 h of ≤3 mM indicated excessive glucose consumption. Prior to the measurement of the pH, the chamber slides were transferred into ambient air for 1 h to allow CO2 to evaporate. A pH drop of 0.5 units in the toxin-exposed well compared to the vehicle only was considered proof of acidosis. Mitochondrial depolarization (ΔΨm assay) was read by a fluorescence microscope after 26 h of exposure to the toxicants from the monolayers double stained with the membrane potential-responsive fluorogenic dye JC-1 and with propidium iodide to assess the relaxing of the plasma membrane permeability barrier, similar to what was reported previously for sperm cells (27).

resting boar spermatozoa [6] = assay: Motility inhibition of resting boar spermatozoa (BSMIR); format: cell-based; settings: resting boar sperm; for EC50: Spermatozoa
Procedure: as §1, with “Three” for “The long-term effects of exposure to chaetoglobosin A and to the chaetoglobosin-containing extracts of the Ch. globosum MTAV35 and MTAV37 strains were measured in resting sperm cells exposed at 24 °C for two days. Three”
The procedure for the BSMIR assay measuring sublethal toxicity as motility inhibition, i.e., inability to respond to induction of motility in resting sperm cells is described below: The ethanol solutions (0.5–10 μL) were dispensed in 2000 μL of extended boar semen (Figen Ltd., Tuomikylä, Finland, density of 27 × 10^6 sperms mL^−1) incubated at 24 °C, and motility of the sperms was inspected in the phase-contrast microscope (400× magnification) with a heated stage, (Olympus CKX41, Tokyo, Japan; magnification 400×) and an image recording software (Cellsense® standard version 11.0.06, Olympus Soft Imaging Solutions GmbH, Münster, Germany, 2012) as described previously. […] The EC50 was calculated from the equation of the straight line between EC50-40 and EC80-90: Y = −ΔY/ΔX × X + C where Y is the motility closest to 50% of the motility of the solvent control, X is the EC50 concentration and C is a constant between 100% and 60%. All tests were run in triplicates and differences between replicate tests were within one dilution step (2-fold). The sperm assays were calibrated with triclosan and valinomycin.

resting boar spermatozoa [7] = assay: Mitochondrial membrane potential (ΔΨm) assay with JC-1 in resting spermatozoa; format: cell-based; settings: resting boar sperm; for EC50: Spermatozoa
Procedure: as §1, with “Three” for “The long-term effects of exposure to chaetoglobosin A and to the chaetoglobosin-containing extracts of the Ch. globosum MTAV35 and MTAV37 strains were measured in resting sperm cells exposed at 24 °C for two days. Three”
as §2, §3

[8] = 20 min, motile boar sperm, 20 min, 37 °C
[9] = 24 h, PK-15, 1 day, read-out: EC50 Sublethal Toxicity Acceleration of glycolysis 1 day
[10] = 48 h, PK-15, 2 days, read-out: EC50 Sublethal Toxicity Acidosis 2 days
[11] = 48 h, 24 °C, 2 days, read-out: EC50 Sublethal Toxicity BSMIR 2 days
[12] = 48 h, JC-1, 2 days, read-out: EC50 Sublethal Toxicity Depletion of ΔΨm 2 days

Molecule | EC50 ([2]; PK-15, 2 days, 37 °C) | EC50 (boar spermatozoa [3]; motile boar sperm, 2 h, 37 °C) | EC50 (boar spermatozoa [4]; [8]) | CC50 (resting boar spermatozoa [5]) | EC50 (resting PK-15 cells; [9]) | EC50 (resting PK-15 cells; [10]) | lethal concentration in resting PK-15 cells (number in parenthesis) (resting PK-15 cells) | EC50 (resting boar spermatozoa [6]; [11]) | EC50 (resting boar spermatozoa [7]; [12]) | EC50 Sublethal Toxicity Acceleration of glycolysis 1 day (resting PK-15 cells; PK-15, 1 day) | EC50 Sublethal Toxicity Acidosis 2 days (resting PK-15 cells; PK-15, 2 days) | sublethal concentration that promoted the acceleration of glycolysis (resting PK-15 cells) | EC50 Sublethal Toxicity BSMIR 2 days (resting boar spermatozoa [6]; 24 °C, 2 days) | EC50 Sublethal Toxicity Depletion of ΔΨm 2 days (resting boar spermatozoa [7]; JC-1, 2 days) | also measured
CC1=C2C(=CO[C@H](C)[C@H]2C)C(O)=C(C(=O)O)C1=O [Citrinin, reference compound] | 10 µg/mL (≈ 40 µM) | 50 µg/mL (≈ 200 µM) | > 100 µg/mL | – | – | – | – | – | – | – | – | – | – | – | EC50 ([1]; Mus musculus, Neuroblastoma cell, 48 h, read-out: EC50 ICP MNA 2 days): 10 µg/mL (≈ 40 µM)
CC(C)[C@H]1C(=O)O[C@H](C(C)C)C(=O)N(C)[C@@H](C(C)C)C(=O)O[C@H](C(C)C)C(=O)N(C)[C@@H](C(C)C)C(=O)O[C@H](C(C)C)C(=O)N1C [Enniatin B] | – | – | – | > 50 µg/mL | 5 µg/mL (≈ 7.81 µM) | 5 µg/mL (≈ 7.81 µM) | 50 µg/mL | 5000 ng/mL (≈ 7.81 µM) | 5000 ng/mL (≈ 7.81 µM) | – | – | – | – | – | –
O=c1cc(O)c1=O [Moniliformin] | – | – | – | – | – | – | 40 µg/mL | – | – | 4 µg/mL | 4 µg/mL (≈ 40.8 µM) | 4 ng/mL | 2 µg/mL (≈ 20.4 µM) | None | –
COc1cc2c(c3oc4cccc(O)c4c(=O)c13)[C@@H]1C=CO[C@@H]1O2 [Sterigmatocystin, sterigmatocystin] | – | – | – | – | – | – | – | – | – | – | – | – | – | – | EC50 ICP PK-15 2 days [2]: 0.5 µg dry wt mL^−1; EC50 SMIDM Boar Sperm 2 h (boar spermatozoa [3]): >20 µg dry wt mL^−1; EC50 BSMIM Boar Sperm 20 min (boar spermatozoa [4]): >20 µg dry wt mL^−1
CC(C)[C@@H]1NC(=O)[C@H](C)OC(=O)[C@@H](C(C)C)NC(=O)[C@@H](C(C)C)OC(=O)[C@H](C(C)C)NC(=O)[C@H](C)OC(=O)[C@@H](C(C)C)NC(=O)[C@@H](C(C)C)OC(=O)[C@H](C(C)C)NC(=O)[C@H](C)OC(=O)[C@@H](C(C)C)NC(=O)[C@@H](C(C)C)OC1=O [Valinomycin] | 14 µg/mL (≈ 12.6 µM) | 70 µg/mL (≈ 63 µM) | 0.0001 µg/mL (≈ 9e-05 µM) | 5 µg/mL | 0.005 µg/mL (≈ 0.0045 µM) | 0.005 µg/mL (≈ 0.0045 µM) | 5 µg/mL | 0.05 ng/mL (≈ 4.5e-05 µM) | 0.05 ng/mL (≈ 4.5e-05 µM) | – | – | 5 ng/mL | – | – | EC50 (resting boar spermatozoa [6]; 96 h, 4 days, read-out: EC50 Sublethal Toxicity BSMIR 4 days): 0.05 ng/mL (≈ 4.5e-05 µM); EC50 (resting boar spermatozoa [7]; 96 h, JC-1, 4 days, read-out: EC50 Sublethal Toxicity Depletion of ΔΨm 4 days): 0.05 ng/mL (≈ 4.5e-05 µM)
Alamethicin | – | – | – | – | – | – | – | – | – | None | None | – | 0.2 µg/mL | 0.2 µg/mL | EC50 ICP MNA 2 days [1]: 8 µg dry wt mL^−1; EC50 ICP PK-15 2 days ([2]; PK-15, 2 days, 37 °C): 8 µg dry wt mL^−1; EC50 Lethal Toxicity SMIDR 2 days (resting boar spermatozoa [5]): 0.2 µg/mL; EC50 SMIDM Boar Sperm 2 h (boar spermatozoa [3]; motile boar sperm, 2 h, 37 °C): 1 µg dry wt mL^−1; EC50 BSMIM Boar Sperm 20 min (boar spermatozoa [4]; motile boar sperm, 20 min, 37 °C): 5 µg dry wt mL^−1
